Assay results as given in patent US20080221086A1, “Novel Inhibitors of Glutaminyl Cyclase” (PROBIODRUG AG, priority 2006, published 2008).
Like-named read-outs stand apart in the source and are kept apart here.

Molecular target: hQC (Homo sapiens, UniProt Q16769)
Assay: Fluorometric assay of glutaminyl cyclase (QC) inhibition, H-Gln-βNA or H-Gln-AMC substrate
Format: biochemical
Method in brief: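 Ki values were obtained by fitting progress curves to a competitive-inhibition equation, and the rapid screen used 4 mM inhibitor with substrate at 1 KM. Both readouts coupled pyroglutamyl aminopeptidase at pH 8.0 and 30° C: H-Gln-βNA at 0.2 mM (ex/em 320/410 nm) or H-Gln-AMC (380/460 nm).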

[1] = compound from preparative synthesis, purified by chromatography, fluorescent assay, read-out: IC50 hQC

hQC, sequence (Q16769 29-361): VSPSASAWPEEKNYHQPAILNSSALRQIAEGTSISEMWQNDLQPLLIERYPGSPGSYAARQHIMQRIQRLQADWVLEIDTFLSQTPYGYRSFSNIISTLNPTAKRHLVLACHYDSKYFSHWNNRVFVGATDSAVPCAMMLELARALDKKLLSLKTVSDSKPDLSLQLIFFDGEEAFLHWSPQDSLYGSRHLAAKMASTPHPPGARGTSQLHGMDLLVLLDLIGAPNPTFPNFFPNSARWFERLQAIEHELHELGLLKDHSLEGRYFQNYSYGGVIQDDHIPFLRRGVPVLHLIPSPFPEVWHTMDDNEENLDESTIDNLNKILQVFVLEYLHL

Row | SMILES | IC50 (read-out: IC50) [nM] | IC50 [1] [nM]
1 | O=C1N/C(=N/CCCc2ccccc2)C(c2cc(Br)cc(Br)c2)N1c1ccc2[nH]cnc2c1 (stereo not drawn) [Compound 303, 1-(1H-Benzoimidazol-5-yl)-5-(3,5-dibromo-phenyl)-4-3-phenyl-propylimino-imidazolidin-2-one] | 4 | –
2 | COC(=O)C(C)N=C1NC(=S)N(c2ccc3[nH]cnc3c2)C1c1ccccc1 (stereo not drawn) [Compound 304, Methyl 2-(1-(1H-benzo[d]imidazol-5-yl)-5-phenyl-2-thioxoimidazolidin-4-ylideneamino)propanoate] | 7600 | –
3 | O=C1N/C(=N/Cc2ccc3[nH]ccc3c2)C(c2cc(Br)cc(Br)c2)N1c1ccc2nc[nH]c2c1 (stereo not drawn) [Compound 305, 1-(3H-Benzoimidazol-5-yl)-5-(3,5-dibromo-phenyl)-4-1H-indol-5-ylmethylimino-imidazolidin-2-one] | 4 | –
4 | CN1CCCN(C(=O)C/N=C2/NC(=O)N(c3ccc4[nH]cnc4c3)C2c2ccc3c(c2)OCCO3)CC1 (stereo not drawn) [Compound 306, 1-(1H-Benzoimidazol-5-yl)-5-(2,3-dihydro-benzo1,4dioxin-6-yl)-4-2-(4-methyl-1,4diazepan-1-yl)-2-oxo-ethylimino-imidazolidin-2-one] | 2200 | –
5 | CN1CCCN(C(=O)C/N=C2/NC(=O)N(c3ccc4[nH]cnc4c3)C2c2ccc3[nH]ccc3c2)CC1 (stereo not drawn) [Compound 307, 1-(1H-Benzoimidazol-5-yl)-5-(1H-indol-5-yl)-4-2-(4-methyl-1,4diazepan-1-yl)-2-oxo-ethylimino-imidazolidin-2-one] | 2200 | –
6 | COCC/N=C1/NC(=O)N(c2ccc3[nH]cnc3c2)C1c1ccc(C)cc1 (stereo not drawn) [Compound 308, 1-(1H-Benzoimidazol-5-yl)-4-2-methoxy-ethylimino-5-p-tolyl-imidazolidin-2-one] | 1300 | –
7 | S=C1N/C(=N/Cn2nnc3ccccc32)C(c2ccc3ccccc3c2)N1c1ccc2[nH]cnc2c1 (stereo not drawn) [Compound 309, 1-(1H-Benzoimidazol-5-yl)-4-benzotriazol-1-ylmethylimino-5-naphthalen-2-yl-imidazolidine-2-thione] | 1300 | –
8 | O=C1N/C(=N/C2CC2)C(c2ccc(Br)cc2)N1c1ccc2nc[nH]c2c1 (stereo not drawn) [Compound 310, 1-(3H-Benzoimidazol-5-yl)-5-(4-bromo-phenyl)-4-cyclopropylimino-imidazolidin-2-one] | 400 | –
9 | S=C1N/C(=N\C2CCCc3ccccc32)C(c2cc(Br)cs2)N1c1ccc2nc[nH]c2c1 (stereo not drawn) [Compound 311, 1-(3H-Benzoimidazol-5-yl)-5-(4-bromo-thiophen-2-yl)-4-1,2,3,4-tetrahydro-naphthalen-1-ylimino-imidazolidine-2-thione] | 5800 | –
10 | OC1CCCCC1N=C1NC(=S)N(c2ccc3[nH]cnc3c2)C1c1ccc2nsnc2c1 (stereo not drawn) [Compound 312, 1-(1H-Benzoimidazol-5-yl)-5-benzo[c][1,2,5]thiadiazol-5-yl-4-2-hydroxy-cyclohexylimino-imidazolidine-2-thione] | 9400 | –
11 | Cc1ccc2occ(C3/C(=N/CCCc4ccccc4)NC(=S)N3c3ccc4[nH]cnc4c3)c(=O)c2c1 (stereo not drawn) [Compound 313, 3-{3-(1H-Benzoimidazol-5-yl)-5-3-phenyl-propylimino-2-thioxo-imidazolidin-4-yl}-6-methyl-chromen-4-one] | 3100 | –
12 | O=C1N/C(=N/CCc2cccs2)C(c2cc3c(cc2Br)OCO3)N1c1ccc2nc[nH]c2c1 (stereo not drawn) [Compound 314, 1-(3H-Benzoimidazol-5-yl)-5-(6-bromo-benzo1,3dioxol-5-yl)-4-2-thiophen-2-yl-ethylimino-imidazolidin-2-one] | 4 | –
13 | CC(CC1/C(=N/C2CCCCCC2)NC(=S)N1c1ccc2nc[nH]c2c1)CC(C)(C)C (stereo not drawn) [Compound 315, 1-(3H-Benzoimidazol-5-yl)-4-cycloheptylimino-5-(2,4,4-trimethyl-pentyl)-imidazolidine-2-thione] | 7600 | –
14 | CC1=CC(C)C(C2/C(=N/CC(=O)N3CCC(O)CC3)NC(=O)N2c2ccc3nc[nH]c3c2)CC1 (stereo not drawn) [Compound 316, 1-(3H-Benzoimidazol-5-yl)-5-(2,4-dimethyl-cyclohex-3-enyl)-4-2-(4-hydroxy-piperidin-1-yl)-2-oxo-ethylimino-imidazolidin-2-one] | 7600 | –
15 | CCc1ccccc1/N=C1\NC(=S)N(c2ccc3[nH]cnc3c2)C1c1ccccc1 (stereo not drawn) [Compound 317, 1-(1H-Benzoimidazol-5-yl)-4-2-ethyl-phenylimino-5-phenyl-imidazolidine-2-thione] | 9400 | –
16 | O=C1N/C(=N\C2CCCC2)C(c2ccc(Cl)c(F)c2)N1c1ccc2[nH]cnc2c1 (stereo not drawn) [Compound 318, 1-(1H-Benzoimidazol-5-yl)-5-(4-chloro-3-fluoro-phenyl)-4-cyclopentylimino-imidazolidin-2-one] | 4 | –
17 | COC(=O)C(C)/N=C1\NC(=S)N(c2ccc3[nH]cnc3c2)C1c1ccc(C)cc1 (stereo not drawn) [Compound 320, Methyl 2-(1-(1H-benzo[d]imidazol-5-yl)-2-thioxo-5-p-tolylimidazolidin-4-ylideneamino)propanoate] | 5800 | –

Row | SMILES | IC50 (read-out: IC50) [nM] | IC50 [1] [nM]
18 | O=C1CCCN1CCC/N=C1/NC(=O)N(c2ccc3nc[nH]c3c2)C1c1ccc(Br)cc1 (stereo not drawn) [Compound 321, 1-(3H-Benzoimidazol-5-yl)-5-(4-bromo-phenyl)-4-3-(2-oxo-pyrrolidin-1-yl)-propylimino-imidazolidin-2-one] | 4 | –
19 | CN(C)c1ccc(C2/C(=N\Cn3nnc4ccccc43)NC(=O)N2c2ccc3[nH]cnc3c2)cc1 (stereo not drawn) [Compound 322, 1-(1H-Benzoimidazol-5-yl)-4-benzotriazol-1-ylmethylimino-5-(4-dimethylamino-phenyl)-imidazolidin-2-one] | 1300 | –
20 | O=C1CCCN1CCC/N=C1/NC(=O)N(c2ccc3[nH]cnc3c2)C1c1ccc(Cl)c(F)c1 (stereo not drawn) [Compound 323, 1-(1H-Benzoimidazol-5-yl)-5-(4-chloro-3-fluoro-phenyl)-4-3-(2-oxo-pyrrolidin-1-yl)-propylimino-imidazolidin-2-one] | 400 | –
21 | Cc1cccc(C2/C(=N\Cn3nnc4ccccc43)NC(=O)N2c2ccc3[nH]cnc3c2)c1 (stereo not drawn) [Compound 324, 1-(1H-Benzoimidazol-5-yl)-4-benzotriazol-1-ylmethylimino-5-m-tolyl-imidazolidin-2-one] | 3100 | –
22 | O=C1N/C(=N/Cn2nnc3ccccc32)CN1c1ccc2[nH]cnc2c1 [Compound 325, 1-(1H-Benzoimidazol-5-yl)-4-benzotriazol-1-ylmethylimino-imidazolidin-2-one] | 6700 | –
23 | O=C1N/C(=N\C(Cc2ccccc2)c2ccccc2)C(c2cc3c(cc2Br)OCO3)N1c1ccc2[nH]cnc2c1 (stereo not drawn) [Compound 326, 1-(1H-Benzoimidazol-5-yl)-5-(6-bromo-benzo1,3dioxol-5-yl)-4-1,2-diphenyl-ethylimino-imidazolidin-2-one] | 4 | –
24 | O=C(CN=C1NC(=O)N(c2ccc3[nH]cnc3c2)C1c1cc2c(cc1Br)OCO2)N1CCCCC1 (stereo not drawn) [Compound 327, 4-(2-Oxo-2-(piperidin-1-yl)ethylimino)-1-(1H-benzo[d]imidazol-5-yl)-5-(5-bromobenzo[d][1,3]dioxol-6-yl)imidazolidin-2-one] | 4 | –
25 | C/N=C1\NC(=O)N(c2ccc3[nH]cnc3c2)C1c1coc2ccc(C)cc2c1=O (stereo not drawn) [Compound 328, 1-(1H-Benzoimidazol-5-yl)-4-methylimino-5-(6-methyl-4-oxo-4H-chromen-3-yl)-imidazolidin-2-one] | 1300 | –
26 | Cc1ccc(C2/C(=N/C3CCCCC3O)NC(=O)N2c2ccc3nc[nH]c3c2)c(C)c1 (stereo not drawn) [Compound 329, 1-(3H-Benzoimidazol-5-yl)-5-(2,4-dimethyl-phenyl)-4-2-hydroxy-cyclohexylimino-imidazolidin-2-one] | 6700 | –
27 | CC1=CC(C)C(C2/C(=N/c3ccc4c(c3)OCCO4)NC(=S)N2c2ccc3[nH]cnc3c2)CC1 (stereo not drawn) [Compound 330, 1-(1H-Benzoimidazol-5-yl)-4-2,3-dihydro-benzo1,4dioxin-6-ylimino-5-(2,4-dimethyl-cyclohex-3-enyl)-imidazolidine-2-thione] | 9400 | –
28 | O=C1N/C(=N/c2ccc3c(c2)OCCO3)C(c2ccc(Br)cc2)N1c1ccc2[nH]cnc2c1 (stereo not drawn) [Compound 331, 1-(1H-Benzoimidazol-5-yl)-5-(4-bromo-phenyl)-4-[2,3-dihydro-benzo[1,4]dioxin-6-ylimino]-imidazolidin-2-one] | 4 | 66.8
29 | Cc1ccc(C2/C(=N/C(C)(C)CC(C)(C)C)NC(=S)N2c2ccc3nc[nH]c3c2)c(C)c1 (stereo not drawn) [Compound 332, 1-(3H-Benzoimidazol-5-yl)-5-(2,4-dimethyl-phenyl)-4-1,1,3,3-tetramethyl-butylimino-imidazolidine-2-thione] | 9400 | –
30 | O=C1N/C(=N\[C@H]2CCc3ccccc32)C(c2ccc(Br)cc2)N1c1ccc2[nH]cnc2c1 (stereo partly drawn) [Compound 333, 1-(1H-Benzoimidazol-5-yl)-5-(4-bromo-phenyl)-4-((S)-indan-1-ylimino)-imidazolidin-2-one] | 4 | 28.2
31 | O=C1N/C(=N\c2ccc3c(c2)OCCO3)C(c2cccc(Br)c2)N1c1ccc2nc[nH]c2c1 (stereo not drawn) [Compound 334, 1-(3H-Benzoimidazol-5-yl)-5-(3-bromo-phenyl)-4-2,3-dihydro-benzo1,4dioxin-6-ylimino-imidazolidin-2-one] | 400 | –
32 | O=C1CCCN1CCC/N=C1/NC(=O)N(c2ccc3[nH]cnc3c2)C1c1cc(F)cc(F)c1 (stereo not drawn) [Compound 335, 1-(1H-Benzoimidazol-5-yl)-5-(3,5-difluoro-phenyl)-4-3-(2-oxo-pyrrolidin-1-yl)-propylimino-imidazolidin-2-one] | 1300 | –
33 | O=C1N/C(=N\C2CCCc3ccccc32)C(c2cccc(Br)c2)N1c1ccc2[nH]cnc2c1 (stereo not drawn) [Compound 336, 1-(1H-Benzoimidazol-5-yl)-5-(3-bromo-phenyl)-4-1,2,3,4-tetrahydro-naphthalen-1-ylimino-imidazolidin-2-one] | 4 | –
34 | O=C1N/C(=N\Cn2nnc3ccccc32)C(c2ccccc2F)N1c1ccc2[nH]cnc2c1 (stereo not drawn) [Compound 337, 1-(1H-Benzoimidazol-5-yl)-4-benzotriazol-1-ylmethylimino-5-(2-fluoro-phenyl)-imidazolidin-2-one] | 1300 | –
